These are literature values, as cited in patent US20220387443A1, “RESPIRATORY SYNCYTIAL VIRUS FUSION PROTEIN INHIBITOR COMPOSITIONS AND METHODS FOR THE TREATMENT AND PROPHYLAXIS OF RSV DISEASES USING THE SAME” (priority 2019, published 2022).

One series concerns RSV. To be noted: human RSV viral challenge studies.
The subject of the next series is RSV infection. To be noted: selected infants, intramuscularly 15 mg/kg once a month for the duration of RSV season.

Turning to `Cc1cn2nc([C@@H]3CCCCN3C(=O)c3cc(Cl)ccc3NS(C)(=O)=O)cc2nc1N1CC[C@H](N)C1` [GS-5806], in the series with RSV, the “reduction of viral load” value was 4.2 log 10. In the case of “palivizumab: humanized monoclonal antibody against RSV fusion (F) protein”, the “reduction of hospitalization rate caused by RSV infection” value with RSV infection is on record as 45-55%.
